Laboratory results as given in publication PMC6154339, “Synthesis, Characterization, Antimicrobial and Antiproliferative Activity Evaluation of Cu(II), Co(II), Zn(II), Ni(II) and Pt(II) Complexes with Isoniazid-Derived Compound” (Molecules : A Journal of Synthetic Chemistry and Natural …, 2017).
Values after ≈ are worked out from the molar mass of the structure shown. Like-named read-outs stand apart in the source and are kept apart here.

Legend:
[1] = test system: Staphylococcus aureus, ATCC 25923; assay: Antibacterial activity, serial dilutions in liquid broth (MIC/MBC); format: cell-based; details: S. aureus (G +)
Text: (§1) All synthesized complexes and the ligand were screened for their in vitro antibacterial activity against Gram-positive bacteria (Staphylococcus aureus), Gram-negative bacteria (Escherichia coli, Klebsiella pneumoniae) and antifungal activity (Candida albicans) strains using the paper disc diffusion technique (for the qualitative determination) and the serial dilutions in liquid broth method (for determination of MIC). Furacillinum and nystatine were used as standard drugs.
(§2) The antibacterial activity of complexes and also of their prototype furacilin has been determined under liquid nutritive environment (2% of peptonate bullion (pH 7.0)) using the successive dilutions method. Escherichia coli, Klebsiella pneumoniae, and Staphylococcus aureus stems were used as reference culture for the in vitro experiment. The dissolution of studied substances in dimethylformamide, microorganism cultivation, suspension obtaining, determination of minimal inhibition concentration (MIC) and minimal bactericide concentration (MBC) have been carried out according to the method previously reported.

[2] = test system: Klebsiella pneumoniae, ATCC 31,488; assay: as above; format: cell-based; details: K. pneumoniae (G −)
Text: as §1, §2

[3] = test system: Escherichia coli, ATCC 25922; assay: as above; format: cell-based; details: E. coli (G −)
Text: as §1, §2

CC(=O)[O-].CC(=O)[O-].[Cu+2] [Cu(CH3COO)2]
LC50 of copper acetate relative to the perchlorate (Daphnia magna; after 24 h of exposure, printed as 'lower'): about 25 fold
LC50 (Daphnia magna; incubation period 24 h): 9.68 µM
LC50 (Daphnia magna; incubation period 48 h): 0.44 µM

[Cu+2].[O-][Cl+3]([O-])([O-])[O-].[O-][Cl+3]([O-])([O-])[O-] [Cu(ClO4)2]
LC50 (Daphnia magna; incubation period 24 h): 0.39 µM

O=[N+]([O-])[O-].O=[N+]([O-])[O-].[Cu+2] [Cu(NO3)2]
LC50 (Daphnia magna; incubation period 24 h): 7.43 µM
LC50 (Daphnia magna; incubation period 48 h): 1.39 µM

[Cl][Cu][Cl] [CuCl2]
LC50 (Daphnia magna; incubation period 24 h): 4.23 µM
LC50 (Daphnia magna; incubation period 48 h): 0.97 µM

NC(=O)N/N=C/c1ccc([N+](=O)[O-])o1 [Furacillinum, reference compound]
MBC [1]: 9.35 µg/mL (≈ 47.2 µM)
MIC [1]: 9.35 µg/mL (≈ 47.2 µM)
MBC [2]: >300 µg/mL
MIC [2]: >300 µg/mL
MBC [3]: 37.5 µg/mL (≈ 189 µM)
MIC [3]: 18.7 µg/mL (≈ 94.4 µM)

[Cl][Pt-2]([Cl])([Cl])[Cl].[K+].[K+] [K2PtCl4]
LC50 (Daphnia magna; incubation period 24 h): 27.7 µM
LC50 (Daphnia magna; incubation period 48 h): 5.63 µM

[Cl][Ni][Cl] [NiCl2]
LC50 (Daphnia magna; incubation period 24 h): 100 µM
LC50 (Daphnia magna; incubation period 48 h): 16.2 µM
